Data as given in ChEMBL document CHEMBL5370660, “Design of a Supersoft Topical JAK Inhibitor, Which Is Effective in Human Skin but Rapidly Deactivated in Blood” (J Med Chem, 2023).

Tests used:
[1] = target: Tyrosine-protein kinase JAK2 (Homo sapiens, UniProt O60674); assay: Inhibition of GST-fused JAK2 (808 to 1132 residues)(unknown origin) using Carboxyfluorescein-Ahx-GGEEEEYFELVKKKK peptide as substrate incubated for 30 mins in presence of ATP by caliper microfluidic mobility shift assay
[2] = target: T1, Tyrosine-protein kinase JAK3 (Homo sapiens, UniProt P52333); assay: Inhibition of GST-fused JAK3 (811 to 1124 residues)(unknown origin) using Carboxyfluorescein-Ahx-GGEEEEYFELVKKKK peptide as substrate incubated for 30 mins in presence of ATP by caliper microfluidic mobility shift assay
T1 sequence (P52333 whole entry): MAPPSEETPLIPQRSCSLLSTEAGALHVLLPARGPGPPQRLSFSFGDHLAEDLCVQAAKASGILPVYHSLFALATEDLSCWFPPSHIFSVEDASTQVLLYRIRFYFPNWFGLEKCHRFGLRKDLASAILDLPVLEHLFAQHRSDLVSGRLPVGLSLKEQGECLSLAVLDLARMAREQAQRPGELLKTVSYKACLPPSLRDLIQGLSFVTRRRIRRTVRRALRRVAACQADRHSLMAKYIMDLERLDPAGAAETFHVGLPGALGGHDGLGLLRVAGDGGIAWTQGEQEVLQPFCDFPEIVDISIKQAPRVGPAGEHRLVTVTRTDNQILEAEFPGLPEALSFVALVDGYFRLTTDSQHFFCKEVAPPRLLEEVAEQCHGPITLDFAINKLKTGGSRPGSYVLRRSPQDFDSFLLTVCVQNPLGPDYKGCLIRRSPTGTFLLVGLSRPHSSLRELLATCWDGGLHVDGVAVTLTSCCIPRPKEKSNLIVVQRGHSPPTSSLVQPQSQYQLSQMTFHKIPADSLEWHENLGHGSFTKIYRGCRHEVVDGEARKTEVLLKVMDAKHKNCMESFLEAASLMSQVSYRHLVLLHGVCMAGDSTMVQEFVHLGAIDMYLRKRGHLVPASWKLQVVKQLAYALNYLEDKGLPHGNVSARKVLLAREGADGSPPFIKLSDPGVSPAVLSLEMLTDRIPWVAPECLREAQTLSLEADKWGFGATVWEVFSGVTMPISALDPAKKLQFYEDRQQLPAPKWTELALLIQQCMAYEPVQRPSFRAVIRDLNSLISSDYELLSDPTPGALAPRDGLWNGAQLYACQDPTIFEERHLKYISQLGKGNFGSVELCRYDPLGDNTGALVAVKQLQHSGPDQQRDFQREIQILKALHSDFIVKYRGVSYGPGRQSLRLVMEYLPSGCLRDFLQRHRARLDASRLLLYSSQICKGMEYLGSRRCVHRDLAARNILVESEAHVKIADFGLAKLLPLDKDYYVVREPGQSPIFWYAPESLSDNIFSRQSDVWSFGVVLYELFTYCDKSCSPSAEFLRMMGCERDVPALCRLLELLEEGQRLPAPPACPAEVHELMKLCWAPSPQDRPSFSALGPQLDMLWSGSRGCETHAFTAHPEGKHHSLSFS

JAK3/JAK1 [3] = target: T2, JAK3/JAK1 (Homo sapiens, UniProt P23458+P52333); assay: Inhibition of JAK1/3-mediated STAT5 phosphorylation in human M07E cells preincubated for 30 mins followed by IL-15 stimulation measured after 15 mins by flow cytometry; type: cell-based
JAK2/JAK1 = JAK2/JAK1 (Homo sapiens, UniProt O60674+P23458); assay: Inhibition of JAK1/2-mediated STAT1 phosphorylation in human M07E cells preincubated for 30 mins followed by IFN-alpha stimulation measured after 15 mins by flow cytometry; type: cell-based
JAK3/JAK1 [4] = target: T2, JAK3/JAK1; assay: Inhibition of JAK1/3-mediated STAT5 phosphorylation in human whole blood incubated for 30 mins followed by IL-2 addition measured after 15 mins by flow cytometry; type: tissue-based
[5] = Stability in human whole blood assessed as half life at 1 uM incubated upto 8 hrs by LC-MS/MS analysis; type: ADME, tissue-based
[6] = Permeability of compound; type: ADME; details: not told; read-out: permeability
[7] = Lipophilicity, LogD of compound; type: physicochemical; details: octanol/water
[8] = Thermodynamic solubility of the compound at pH 6.8 using crystalline form of sample; type: physicochemical
[9] = Stability of compound under light stress assessed as compound decomposition under sunlight with intensity of 4000 KJ/m2, irradiation of 250 W/m2, wavelength of >290 nm, temperature of 37 degreeC for 4 hrs using crystalline form of sample; type: ADME; details: read-out: Drug degradation
[10] = Stability of compound under temperature stress assessed as compound degradation at 50 degreeC measured after 7 days using crystalline form of sample; type: physicochemical; details: time 7 day; read-out: Drug degradation
[11] = Drug penetration in fresh human skin explant using Franz diffusion cell model assessed as concentration of 2-(6-((5-carbamoyl-4-((2-methoxyphenyl)amino)pyridin-2-yl)amino)pyridin-3-yl)acetic acid metabolite in receiver fluid at 3 % administered topically preincubated overnight followed by fresh media replacement in receiver fluid without compound and subsequently stimulated with IL-4/IL-13 measured after 24 hrs by LC-MS/MS analysis; type: ADME, tissue-based, Skin of body; details: topical_or_ocular
[12] = Stability in dermis human abdominal skin upto 2.5 % administered topically as ointment treated for 24 hrs followed by removal of ointment and stratum corneum and subsequently stimulated with IL-4/IL-13 measured after 3 hrs; type: ADME, tissue-based, Abdomen skin; details: topical_or_ocular, 27 h, route top
[13] = Drug metabolism in rat assessed as excretion of 2-(6-((5-carbamoyl-4-((2-methoxyphenyl)amino)pyridin-2-yl)amino)pyridin-3-yl)acetic acid metabolite by measuring half life; type: ADME

T2 sequence (P23458 whole entry, one chain of several): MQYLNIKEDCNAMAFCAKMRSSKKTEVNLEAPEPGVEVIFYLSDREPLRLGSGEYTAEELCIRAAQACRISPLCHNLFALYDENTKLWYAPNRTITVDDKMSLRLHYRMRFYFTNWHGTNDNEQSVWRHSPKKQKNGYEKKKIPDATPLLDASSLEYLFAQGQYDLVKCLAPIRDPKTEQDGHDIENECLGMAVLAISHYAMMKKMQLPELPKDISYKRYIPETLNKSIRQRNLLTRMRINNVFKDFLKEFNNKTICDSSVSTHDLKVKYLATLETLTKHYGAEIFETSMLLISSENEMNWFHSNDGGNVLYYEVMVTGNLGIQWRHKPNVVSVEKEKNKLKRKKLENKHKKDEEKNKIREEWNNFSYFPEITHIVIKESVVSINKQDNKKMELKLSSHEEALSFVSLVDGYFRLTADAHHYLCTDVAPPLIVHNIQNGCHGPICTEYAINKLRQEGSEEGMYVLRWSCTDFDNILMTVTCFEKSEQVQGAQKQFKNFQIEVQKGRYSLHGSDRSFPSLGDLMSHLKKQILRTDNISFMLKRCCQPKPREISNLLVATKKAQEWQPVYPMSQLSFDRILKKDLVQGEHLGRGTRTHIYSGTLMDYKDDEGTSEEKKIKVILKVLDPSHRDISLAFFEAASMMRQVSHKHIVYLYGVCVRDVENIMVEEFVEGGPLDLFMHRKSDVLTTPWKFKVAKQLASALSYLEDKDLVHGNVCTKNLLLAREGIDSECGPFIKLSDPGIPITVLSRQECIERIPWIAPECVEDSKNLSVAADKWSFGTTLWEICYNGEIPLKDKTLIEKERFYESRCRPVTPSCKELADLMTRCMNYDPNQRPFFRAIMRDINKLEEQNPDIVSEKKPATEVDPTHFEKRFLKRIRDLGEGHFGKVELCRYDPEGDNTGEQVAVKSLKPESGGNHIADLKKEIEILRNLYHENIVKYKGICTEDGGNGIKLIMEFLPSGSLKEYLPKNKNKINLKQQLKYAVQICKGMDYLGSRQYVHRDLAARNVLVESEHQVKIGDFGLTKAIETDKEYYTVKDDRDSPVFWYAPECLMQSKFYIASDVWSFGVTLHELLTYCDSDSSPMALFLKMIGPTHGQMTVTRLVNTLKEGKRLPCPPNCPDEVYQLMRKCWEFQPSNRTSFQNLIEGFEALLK
Chain of Tyrosine-protein kinase JAK2 (O60674 whole entry, the tested form may be a part): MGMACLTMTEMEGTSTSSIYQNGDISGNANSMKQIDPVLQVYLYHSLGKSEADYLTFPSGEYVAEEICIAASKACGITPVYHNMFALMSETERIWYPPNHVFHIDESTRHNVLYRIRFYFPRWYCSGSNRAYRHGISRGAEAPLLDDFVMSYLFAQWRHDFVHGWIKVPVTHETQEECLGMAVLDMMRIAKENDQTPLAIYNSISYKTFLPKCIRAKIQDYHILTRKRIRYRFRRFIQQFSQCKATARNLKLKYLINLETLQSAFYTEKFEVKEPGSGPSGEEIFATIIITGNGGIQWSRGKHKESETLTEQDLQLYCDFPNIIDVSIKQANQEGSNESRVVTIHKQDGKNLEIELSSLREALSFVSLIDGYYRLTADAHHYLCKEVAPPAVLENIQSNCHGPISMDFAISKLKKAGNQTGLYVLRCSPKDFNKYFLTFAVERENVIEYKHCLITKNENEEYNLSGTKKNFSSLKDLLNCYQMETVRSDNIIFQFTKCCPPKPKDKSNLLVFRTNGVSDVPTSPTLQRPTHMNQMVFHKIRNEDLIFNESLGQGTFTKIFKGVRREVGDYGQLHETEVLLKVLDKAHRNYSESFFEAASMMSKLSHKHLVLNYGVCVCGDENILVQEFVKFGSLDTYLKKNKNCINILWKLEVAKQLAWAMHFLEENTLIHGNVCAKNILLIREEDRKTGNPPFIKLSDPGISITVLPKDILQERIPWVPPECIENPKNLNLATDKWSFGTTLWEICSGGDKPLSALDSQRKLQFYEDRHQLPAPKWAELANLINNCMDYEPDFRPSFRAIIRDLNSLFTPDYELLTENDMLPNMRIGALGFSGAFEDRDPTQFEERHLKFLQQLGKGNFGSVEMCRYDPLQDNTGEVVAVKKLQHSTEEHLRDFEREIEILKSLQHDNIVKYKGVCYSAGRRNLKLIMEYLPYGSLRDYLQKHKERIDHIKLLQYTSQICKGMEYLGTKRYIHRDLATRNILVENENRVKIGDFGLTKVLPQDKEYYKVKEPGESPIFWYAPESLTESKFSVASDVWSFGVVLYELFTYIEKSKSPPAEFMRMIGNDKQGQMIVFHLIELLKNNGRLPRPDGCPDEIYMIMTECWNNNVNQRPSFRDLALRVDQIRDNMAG
Chain of JAK2/JAK1 (P23458 whole entry): as the sequence (P23458 whole entry, one chain of several) above
Chain of JAK2/JAK1 (O60674 whole entry): as the sequence (O60674 whole entry, the tested form may be a part) above

For `COC[C@@H](C)OC(=O)Cc1ccc(Nc2cc(Nc3ccccc3OC)c(C(N)=O)cn2)nc1`, the IC50 [1] was 5 nM, the IC50 [2] was 4 nM and the IC50 (JAK3/JAK1 [3]) was 131 nM. The IC50 (JAK2/JAK1) was 45 nM, the IC50 (JAK3/JAK1 [4]) was 14800 nM and the half-life at 1 µM [5] was 6 min. The Papp [6] was 18 ×10⁻⁶ cm/s, the logD [7] was 3.3 and the Therm_solubility [8] was 7 ng/mL. For the same compound, the degraded at 4 h [9] was 0.1%, the degraded at 168 h [10] was 0.4% and the Drug uptake [11] was 0.223 µM. The Stability [12] was “Stable” and the t1/2 [13] was < 20 min.
